Test results: patent US4476120A, “Thiolic derivatives of erythromycin having therapeutic activity, and pharmaceutical compositions containing them” (Sigma Tau Indistrie Farmaceutiche Riunites, p.A, priority 1982, dated 1984)
Converted amounts (≈) assume the structure as drawn.

Assays:
[1] = system: Staph. albus SS 03; assay type: cell-based; settings: Brain Heart Infusion, estolate and RV11-RV15 previously hydrolized, unit assumed
[2] = system: Staph. albus SS 04; assay type: cell-based; settings: Brain Heart Infusion, estolate and RV11-RV15 previously hydrolized, unit assumed
[3] = system: Staph. aureus SS 08; assay type: cell-based; settings: Brain Heart Infusion, estolate and RV11-RV15 previously hydrolized, unit assumed
[4] = system: Staph. aureus SS 09; assay type: cell-based; settings: Brain Heart Infusion, estolate and RV11-RV15 previously hydrolized, unit assumed
[5] = system: Strept. haemolyticus SS 17; assay type: cell-based; settings: Brain Heart Infusion, estolate and RV11-RV15 previously hydrolized, unit assumed
[6] = system: Strept. haemolyticus SS 18; assay type: cell-based; settings: Brain Heart Infusion, estolate and RV11-RV15 previously hydrolized, unit assumed
[7] = system: Strept. faecalis SS 19; assay type: cell-based; settings: Brain Heart Infusion, estolate and RV11-RV15 previously hydrolized, unit assumed
[8] = system: S. lutea ATCC 9341; assay type: cell-based; settings: Brain Heart Infusion, estolate and RV11-RV15 previously hydrolized, unit assumed
[9] = system: B. subtilis ATCC 6633; assay type: cell-based; settings: Brain Heart Infusion, estolate and RV11-RV15 previously hydrolized, unit assumed
[10] = system: B. subtilis SS 127; assay type: cell-based; settings: Brain Heart Infusion, estolate and RV11-RV15 previously hydrolized, unit assumed
[11] = system: B. cereus ATCC 11778; assay type: cell-based; settings: Brain Heart Infusion, estolate and RV11-RV15 previously hydrolized, unit assumed
[12] = system: B. anthranis SS 08; assay type: cell-based; settings: Brain Heart Infusion, estolate and RV11-RV15 previously hydrolized, unit assumed
[13] = system: Br. melitensis SS 19; assay type: cell-based; settings: unit assumed
[14] = system: Br. abortus SS 7; assay type: cell-based; settings: Brain Heart Infusion, estolate and RV11-RV15 previously hydrolized, unit assumed
[15] = system: Citrobacter SS 05; assay type: cell-based; settings: Brain Heart Infusion, estolate and RV11-RV15 previously hydrolized, unit assumed
[16] = system: Citrobacter SS 09; assay type: cell-based; settings: Brain Heart Infusion, estolate and RV11-RV15 previously hydrolized, unit assumed
[17] = system: S. infantis SS 08; assay type: cell-based; settings: Brain Heart Infusion, estolate and RV11-RV15 previously hydrolized, unit assumed
[18] = system: S. heidelberg SS 18; assay type: cell-based; settings: Brain Heart Infusion, estolate and RV11-RV15 previously hydrolized, unit assumed
[19] = system: E. cloacae SS 07; assay type: cell-based; settings: Brain Heart Infusion, estolate and RV11-RV15 previously hydrolized, unit assumed
[20] = system: E. aerogenes SS 011; assay type: cell-based; settings: Brain Heart Infusion, estolate and RV11-RV15 previously hydrolized, unit assumed
[21] = system: Ps. aeruginosa SS 10; assay type: cell-based; settings: Brain Heart Infusion, estolate and RV11-RV15 previously hydrolized, unit assumed
[22] = system: E. coli SS 04; assay type: cell-based; settings: Brain Heart Infusion, estolate and RV11-RV15 previously hydrolized, unit assumed
[23] = system: E. coli SS 05; assay type: cell-based; settings: Brain Heart Infusion, estolate and RV11-RV15 previously hydrolized, unit assumed
[24] = system: E. coli SS 06; assay type: cell-based; settings: Brain Heart Infusion, estolate and RV11-RV15 previously hydrolized, unit assumed
[25] = system: E. coli SS 07; assay type: cell-based; settings: Brain Heart Infusion, estolate and RV11-RV15 previously hydrolized, unit assumed
[26] = system: Pr. mirabilis SS 09; assay type: cell-based; settings: Brain Heart Infusion, estolate and RV11-RV15 previously hydrolized, unit assumed
[27] = system: Pr. vulgaris SS 10; assay type: cell-based; settings: Brain Heart Infusion, estolate and RV11-RV15 previously hydrolized, unit assumed
[28] = system: Kl. aerogenes SS 71; assay type: cell-based; settings: Brain Heart Infusion, estolate and RV11-RV15 previously hydrolized, unit assumed
[29] = system: H. tubercolosis SS 03; assay type: cell-based; settings: Brain Heart Infusion, estolate and RV11-RV15 previously hydrolized, unit assumed
From the text: (§1) In the following table I the MIC/ml values are indicated corresponding to the lowest concentration capable of inducing a complete inhibition of the bacterial development.

[30] = system: Kl. pneumoniae SS 04; assay type: cell-based; settings: Brain Heart Infusion, estolate and RV11-RV15 previously hydrolized, unit assumed
From the text: as §1

[31] = system: Sr. marcescens SS 03; assay type: cell-based; settings: Brain Heart Infusion, estolate and RV11-RV15 previously hydrolized, unit assumed
[32] = system: C. diphtheriae SS 19; assay type: cell-based; settings: Brain Heart Infusion, estolate and RV11-RV15 previously hydrolized, unit assumed
[33] = system: D. pneumoniae SS 23; assay type: cell-based; settings: Brain Heart Infusion, estolate and RV11-RV15 previously hydrolized, unit assumed
[34] = system: N. gonorreae SS 27; assay type: cell-based; settings: Brain Heart Infusion, estolate and RV11-RV15 previously hydrolized, unit assumed
[35] = system: N. meningitidis SS 04; assay type: cell-based; settings: Brain Heart Infusion, estolate and RV11-RV15 previously hydrolized, unit assumed
[36] = system: H. influentiae SS 02; assay type: cell-based; settings: Brain Heart Infusion, estolate and RV11-RV15 previously hydrolized, unit assumed
[37] = system: H. pertussis SS 03; assay type: cell-based; settings: Brain Heart Infusion, estolate and RV11-RV15 previously hydrolized, unit assumed
[38] = system: C. albicans SS 04; assay type: cell-based; settings: Brain Heart Infusion, estolate and RV11-RV15 previously hydrolized, unit assumed
[39] = system: Cl. tetani SS 17; assay type: cell-based; settings: Brain Heart Infusion, estolate and RV11-RV15 previously hydrolized, unit assumed
[40] = system: B. anthranis SS 09; assay type: cell-based; settings: B. anthranis SS 09 (14 bis); Brain Heart Infusion; estolate and RV11-RV15 previously hydrolized; unit assumed
[41] = system: Staph. aureus SS 07; test: Experimental infection induced by Staph. aureus SS 07; assay type: in vivo, Swiss white mice; settings: Staphylococcus aureus, SS07, in Mus musculus, po, 168 h, os; Staph. aureus SS 07; mg/kg of erythromycin; survival after 7 days; read-out: ED50 (reliability limits)
Protocol: (§2) Swiss white mice of 20 g body weight were used, infected by parenteral administration of lethal amounts of pathogenic […] of Staph. aureus SS 07 and D. pneumoniae SS 23.
(§3) The antibiotics were administered at the time of injecting the infecting germ and 6 and 24 hours later. On the basis of the survival after 7 days, the ED50 values were determined, as reported in the following table II and III, wherein the reliability limits are indicated in brackets.

[42] = system: D. pneumoniae SS 23; test: Experimental infection induced by D. pneumoniae SS 23; assay type: in vivo, Swiss white mice; settings: Streptococcus pneumoniae, SS23, in Mus musculus, po, 168 h, os; D. pneumoniae SS 23; mg/kg of erythromycin; survival after 7 days; read-out: ED50 (reliability limits)
Protocol: as §2, §3

[43] = Hematic levels in the healthy volunteer; assay type: in vivo, healthy volunteers; settings: 500 mg of erythromycin, average; for Hematic levels in the healthy volunteer: oral
From the text: For the dosing, the microbiological method using a B. subtilis strain was adopted.

[44] = Mucolytic activity: obstruction of the bronchial tract after SO2 inhalation; assay type: in vivo, Sprague Dawley male rats; settings: oral, 500 mg/kg; SO2, 15 days
[45] = Histological examination of bronchi after SO2 inhalation; assay type: in vivo, Sprague Dawley male rats; settings: oral, 500 mg/kg
[46] = in vivo, po, 100 mg/kg, 6 h
[47] = in vivo; settings: rat, po, 100 mg/kg, Hematic levels in the rat

CCC(=O)O[C@H]1[C@H](O[C@@H]2[C@@H](C)[C@H](O[C@H]3C[C@@](C)(OC)[C@@H](O)[C@H](C)O3)[C@@H](C)C(=O)O[C@H](CC)[C@@](C)(O)[C@H](O)[C@@H](C)C(=O)[C@H](C)C[C@@]2(C)O)O[C@H](C)C[C@@H]1N(C)C [erythromycin estolate, reference compound]
MIC [1]: 0.05 µg/mL (≈ 0.0633 µM) | MIC [2]: 0.05 µg/mL (≈ 0.0633 µM) | MIC [3]: 0.025 µg/mL (≈ 0.0316 µM) | MIC [4]: 0.05 µg/mL (≈ 0.0633 µM) | MIC [5]: 3 µg/mL (≈ 3.8 µM) | MIC [6]: 3 µg/mL (≈ 3.8 µM) | MIC [7]: 0.1 µg/mL (≈ 0.127 µM) | MIC [8]: 0.01 µg/mL (≈ 0.0127 µM) | MIC [9]: 0.01 µg/mL (≈ 0.0127 µM) | MIC [10]: 0.025 µg/mL (≈ 0.0316 µM) | MIC [11]: 0.8 µg/mL (≈ 1.01 µM) | MIC [12]: 0.4 µg/mL (≈ 0.506 µM) | MIC [13]: 3 µg/mL (≈ 3.8 µM) | MIC [14]: 6 µg/mL (≈ 7.59 µM) | MIC [15]: > 200 µg/mL | MIC [16]: > 200 µg/mL | MIC [17]: 100 µg/mL (≈ 127 µM) | MIC [18]: 100 µg/mL (≈ 127 µM) | MIC [19]: > 200 µg/mL | MIC [20]: 50 µg/mL (≈ 63.3 µM) | MIC [21]: 100 µg/mL (≈ 127 µM) | MIC [22]: 100 µg/mL (≈ 127 µM) | MIC [23]: 100 µg/mL (≈ 127 µM) | MIC [24]: 50 µg/mL (≈ 63.3 µM) | MIC [25]: 50 µg/mL (≈ 63.3 µM) | MIC [26]: > 200 µg/mL | MIC [27]: > 200 µg/mL | MIC [28]: 100 µg/mL (≈ 127 µM) | MIC [29]: 50 µg/mL (≈ 63.3 µM) | MIC [30]: 100 µg/mL (≈ 127 µM) | MIC [31]: > 200 µg/mL | MIC [32]: 0.025 µg/mL (≈ 0.0316 µM) | MIC [33]: 0.05 µg/mL (≈ 0.0633 µM) | MIC [34]: 0.8 µg/mL (≈ 1.01 µM) | MIC [35]: 1.5 µg/mL (≈ 1.9 µM) | MIC [36]: 1.5 µg/mL (≈ 1.9 µM) | MIC [37]: 0.4 µg/mL (≈ 0.506 µM) | MIC [38]: 200 µg/mL (≈ 253 µM) | MIC [39]: 0.2 µg/mL (≈ 0.253 µM) | MIC [40]: 0.4 µg/mL (≈ 0.506 µM) | ED50 [41]: 2.2 mg/kg | ED50 [42]: 128 mg/kg | Hematic levels in the healthy volunteer ([43]; 0.30 hours, 18 min): 0.27 µg/mL | Hematic levels in the healthy volunteer ([43]; 1 hour, 60 min): 0.58 µg/mL | concentration at 2 h ([43]; human, blood, po, 500 mg, 2 hours): 2100 ng/mL | concentration at 3 h ([43]; human, blood, po, 500 mg, 3 hours): 1410 ng/mL | concentration at 4 h ([43]; human, blood, po, 500 mg, 4 hours): 1310 ng/mL | Partial obstruction (% incidence) [44]: 20% | Total obstruction, compact plug (% incidence) [44]: 46.66% | Total obstruction, nodular mass (% incidence) [44]: 20% | Total obstruction, pimply mass (% incidence) [44]: 6.66% | bronchial epithelium reaction [45]: the bronchial epithelium reacts through a proliferation of cells, mainly cup-shaped cells | histological appearance of obstructed bronchial tract ([45]; obstructed): the bronchial obstruction is formed by abundant mucus admixed with fibrin | Hematic levels in the rat [46]: 0.04 µg/mL | concentration at 0.3 h [47]: 680 ng/mL | concentration at 1 h [47]: 1740 ng/mL | concentration at 2 h [47]: 2490 ng/mL | concentration at 3 h [47]: 1490 ng/mL | concentration at 4 h [47]: 610 ng/mL | concentration at 5 h [47]: 370 ng/mL
